{
  "source": "paper PMC10636063",
  "about": "“Progesterone activation of β1-containing BK channels involves two binding sites” (Nature Communications, 2023)",
  "key": {"cbv1+β1W87F": {"target": "T1, cbv1+β1W87F (Rattus norvegicus, UniProt P97678, W87F)", "T1 construct": "made in house; host or cells: CHO cells, transient transfection; sucrose-gradient membrane preparation", "T1 sequence (P97678 whole entry W87F, canonical isoform)": "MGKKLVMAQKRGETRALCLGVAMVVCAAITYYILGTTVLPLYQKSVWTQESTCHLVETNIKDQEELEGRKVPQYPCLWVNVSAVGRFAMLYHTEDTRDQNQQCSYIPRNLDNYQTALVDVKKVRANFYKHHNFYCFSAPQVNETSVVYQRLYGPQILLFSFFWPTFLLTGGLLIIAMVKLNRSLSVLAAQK", "T1 sequence (Q62976 1-1148 isoform Q62976-2 partner)": "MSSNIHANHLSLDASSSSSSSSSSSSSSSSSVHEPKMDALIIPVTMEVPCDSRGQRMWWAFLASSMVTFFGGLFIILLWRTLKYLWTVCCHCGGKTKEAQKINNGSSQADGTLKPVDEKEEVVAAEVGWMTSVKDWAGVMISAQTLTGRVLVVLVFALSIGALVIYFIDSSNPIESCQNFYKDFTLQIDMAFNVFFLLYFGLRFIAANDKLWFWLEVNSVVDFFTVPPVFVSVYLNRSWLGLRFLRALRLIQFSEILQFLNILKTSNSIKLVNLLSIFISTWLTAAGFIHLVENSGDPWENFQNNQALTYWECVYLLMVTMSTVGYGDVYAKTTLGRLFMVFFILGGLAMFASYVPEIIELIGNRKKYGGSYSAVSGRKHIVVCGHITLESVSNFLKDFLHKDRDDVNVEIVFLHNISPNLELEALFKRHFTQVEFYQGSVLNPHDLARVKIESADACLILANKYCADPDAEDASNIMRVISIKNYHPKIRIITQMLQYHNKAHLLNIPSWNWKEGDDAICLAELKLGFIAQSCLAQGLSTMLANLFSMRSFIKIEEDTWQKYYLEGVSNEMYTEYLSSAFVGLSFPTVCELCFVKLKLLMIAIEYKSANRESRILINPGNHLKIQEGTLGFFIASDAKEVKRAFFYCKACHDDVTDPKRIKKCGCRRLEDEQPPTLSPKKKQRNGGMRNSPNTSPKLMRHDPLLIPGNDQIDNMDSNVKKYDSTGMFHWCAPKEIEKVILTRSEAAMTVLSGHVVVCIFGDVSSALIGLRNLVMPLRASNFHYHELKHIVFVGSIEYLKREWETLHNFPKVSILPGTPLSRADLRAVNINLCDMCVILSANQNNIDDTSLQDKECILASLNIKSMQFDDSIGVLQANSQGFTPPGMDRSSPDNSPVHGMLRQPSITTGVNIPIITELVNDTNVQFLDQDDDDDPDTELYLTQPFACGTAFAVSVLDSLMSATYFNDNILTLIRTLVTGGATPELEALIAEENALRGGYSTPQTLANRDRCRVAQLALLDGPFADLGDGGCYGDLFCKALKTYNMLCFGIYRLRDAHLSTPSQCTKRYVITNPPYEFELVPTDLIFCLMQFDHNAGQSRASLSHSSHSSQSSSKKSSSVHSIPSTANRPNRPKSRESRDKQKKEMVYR", "assay": "Channel activity (NPo) in POPE/POPS bilayers, cbv1+β1W87F", "format": "biochemical", "text": "BK channel-forming slo1 cDNA (cbv1 isoform; AY330293) was cloned from rat cerebral artery SM cells, and inserted into pcDNA3.1 vector as described. BK β1 cDNA (KCNMB1 product; NP_011452; FJ154955) were isolated from rat cerebral artery SM cells and cloned as described. β4 cDNA (KCNMB4; NP_055320; AY028605) were generously provided by Dr. Ligia Toro. CHO cells were transiently transfected with cbv1 ± β1-, or β4-carrying pcDNA3.1 using X-tremeGENE HP (Sigma-Aldrich). […]\nProteins for electrophysiological recordings in artificial lipid bilayers remained untagged. […] BK channel-mediated ionic current was recorded in planar lipid bilayers consisting of a POPE:POPS 3:1 (w/w) mixture. […]\nPatch-clamp and bilayer data were analyzed using Clampfit 10.7 software (Molecular Devices). […] Drug-induced NPo changes were determined by comparing baseline NPo (i.e., NPo with the patch/cell perfused with bath solution) to the NPo from the same patch/cell exposed to the agent under study (DMSO/PROG/oxime) dissolved in bath solution. NPo and mean open time values were automatically calculated using Clampfit 10.7, the latter using a 50% threshold detection event."}, "cbv1+β1W163I": {"target": "T2, cbv1+β1W163I (Rattus norvegicus, UniProt P97678, W163I)", "T2 construct": "made in house; host or cells: CHO cells, transient transfection; sucrose-gradient membrane preparation", "T2 sequence (P97678 whole entry W163I, canonical isoform)": "as the sequence (P97678 whole entry W87F, canonical isoform) above, with F87W, W163I counted along it", "T2 sequence (Q62976 1-1148 isoform Q62976-2 partner)": "as the sequence (Q62976 1-1148 isoform Q62976-2 partner) above", "assay": "Channel activity (NPo) in POPE/POPS bilayers, cbv1+β1W163I", "format": "biochemical", "settings": "for normalized NPo, time course Fig 2E: W163I PROG", "text": "BK channel-forming slo1 cDNA (cbv1 isoform; AY330293) was cloned from rat cerebral artery SM cells, and inserted into pcDNA3.1 vector as described. BK β1 cDNA (KCNMB1 product; NP_011452; FJ154955) were isolated from rat cerebral artery SM cells and cloned as described. β4 cDNA (KCNMB4; NP_055320; AY028605) were generously provided by Dr. Ligia Toro. CHO cells were transiently transfected with cbv1 ± β1-, or β4-carrying pcDNA3.1 using X-tremeGENE HP (Sigma-Aldrich). Mutations to β1/4 cDNAs were conducted by Genscript, with sequences being confirmed to be >99% identical to KCNMB1 product; NP_011452 or β4 KCNMB4; NP_055320; respectively. β1/4 and mutant constructs were flag-tagged (DYKDDDDK-tag) by Genscript services for subsequent immunoprecipitation and use in microscale thermophoresis studies.\nProteins for electrophysiological recordings in artificial lipid bilayers remained untagged. Cells were transiently transfected as described above, pelleted and re-suspended on ice in 10 ml of buffer solution of the following composition (mM): 30 KCl, 2 MgCl2, 10 HEPES, 5 EGTA; pH 7.2. A membrane preparation was obtained using a sucrose gradient as described. Aliquots were stored at −80 °C. BK channel-mediated ionic current was recorded in planar lipid bilayers consisting of a POPE:POPS 3:1 (w/w) mixture. Lipid mixtures were dried under N2 and re-suspended in 25 mg/ml of n-decane BK currents following incorporation into horizontal bilayers at 300/30 mM cis/trans gradient as detailed elsewhere. Ion currents were obtained during a 10-min gap-free recording at 0 mV in the presence of 0.01, 10 μM PROG, 10 μM PROG-oxime, or vehicle control (dimethyl sulfoxide; DMSO). Currents were obtained in gap-free mode using a Warner BC-525D amplifier, low pass-filtered at 1 kHz and sampled at 5 kHz with Digidata 1550B/pCLAMP 11 (Molecular Devices). For comparison with previous data from us[16],[17],[45]–[47], studies were conducted at 20–22 °C. PROG stock, oxime stock or vehicle control (DMSO) was added to the bilayer cis chamber to reach final concentrations (0.01–10 µM), with all compounds being dissolved with the same concentration of DMSO (0.1%); n = 5–10 for each group.\nPatch-clamp and bilayer data were analyzed using Clampfit 10.7 software (Molecular Devices). NPo was used as an index of channel steady-state activity where N = number of channels in the patch (defined as a maximal number of opening levels at Po≤1) and Po=single channel open probability. Drug-induced NPo changes were determined by comparing baseline NPo (i.e., NPo with the patch/cell perfused with bath solution) to the NPo from the same patch/cell exposed to the agent under study (DMSO/PROG/oxime) dissolved in bath solution. NPo and mean open time values were automatically calculated using Clampfit 10.7, the latter using a 50% threshold detection event."}},
  "note": "“And” between values parts separate entries of the source, which are not always exact repeats. Identical values can stand only once.",
  "data": [
    {"compound": "CC(=O)[C@H]1CC[C@H]2[C@@H]3CCC4=CC(=O)CC[C@]4(C)[C@H]3CC[C@]12C", "note": "[PROG, Progesterone]", "values": [
      {"measurement": "action on channel activity (NPo)", "setting": "cbv1+β1W87F; 10 µM, vs vehicle", "result": "effectively abolished PROG action"},
      {"measurement": "normalized NPo, time course Fig 4E", "setting": "cbv1+β1W87F; cbv1+w87F prog, time 1 min (normalisation reference)", "result": 1},
      {"measurement": "action on channel activity (NPo)", "setting": "cbv1+β1W163I; 10 µM, vs DMSO", "result": "effectively abolished PROG action"},
      {"measurement": "normalized NPo, time course Fig 2E", "setting": "cbv1+β1W163I; time 1 min (normalisation reference)", "result": 1},
      {"measurement": "normalized NPo, time course Fig 2E", "setting": "cbv1+β1W163I; time 2 min", "result": "0.8408 and 0.8822 and 1.039 and 0.6048 and 0.9835"},
      {"measurement": "normalized NPo, time course Fig 2E", "setting": "cbv1+β1W163I; time 6 min", "result": "0.9156 and 1.236 and 1.01 and 0.7339 and 0.9865"},
      {"measurement": "normalized NPo, time course Fig 2E", "setting": "cbv1+β1W163I; time 7 min", "result": "1.033 and 1.222 and 0.6583 and 1.166"},
      {"measurement": "normalized NPo, time course Fig 2E", "setting": "cbv1+β1W163I; time 8 min", "result": "0.9156 and 0.8317 and 0.9282 and 1.117"},
      {"measurement": "normalized NPo, time course Fig 2E", "setting": "cbv1+β1W163I; time 9 min", "result": "1.0966 and 0.7071 and 0.5738 and 1.067"},
      {"measurement": "normalized NPo, time course Fig 2E", "setting": "cbv1+β1W163I; time 10 min", "result": "1.291 and 0.8215 and 0.6728 and 1.157"}
    ]}
  ]
}
